According to patent US6635650B2, “Substituted dimeric compounds” (Les Laboratoires Servier, priority 1999, dated 2003):

With CC(=O)NCCc1cccc2ccc(OCCCCCCOc3ccc4cccc(CCNC(C)=O)c4c3)cc12 [Example 17, N-[2-(7-{[6-({8-[2-(Acetylamino)ethyl]-2-naphthyl}oxy)hexyl]oxy}-1-naphthyl)ethyl]acetamide] the melting point was 142 to 144 °C.
